From paper PMC10980263, “Cryo-EM structures of the human NaS1 and NaDC1 transporters revealed the elevator transport and allosteric regulation mechanism” (Science Advances, 2024)

What was measured:
NaDC1 [1] = molecular target: T1, NaDC1 (Homo sapiens, UniProt Q13183, I550V); assay: cryo-EM structure ([…] Å); type: binding; conditions: 400 μM ACA; allosteric site of TM2, L10, TM11, TM6a
T1 construct: gene SLC13A2; full length, homodimer; N-terminal FLAG purified from HEK293F (structures, natural variant I550V); GFP and FLAG tagged in HEK293T for currents
T1 sequence (Q13183 1-592 I550V): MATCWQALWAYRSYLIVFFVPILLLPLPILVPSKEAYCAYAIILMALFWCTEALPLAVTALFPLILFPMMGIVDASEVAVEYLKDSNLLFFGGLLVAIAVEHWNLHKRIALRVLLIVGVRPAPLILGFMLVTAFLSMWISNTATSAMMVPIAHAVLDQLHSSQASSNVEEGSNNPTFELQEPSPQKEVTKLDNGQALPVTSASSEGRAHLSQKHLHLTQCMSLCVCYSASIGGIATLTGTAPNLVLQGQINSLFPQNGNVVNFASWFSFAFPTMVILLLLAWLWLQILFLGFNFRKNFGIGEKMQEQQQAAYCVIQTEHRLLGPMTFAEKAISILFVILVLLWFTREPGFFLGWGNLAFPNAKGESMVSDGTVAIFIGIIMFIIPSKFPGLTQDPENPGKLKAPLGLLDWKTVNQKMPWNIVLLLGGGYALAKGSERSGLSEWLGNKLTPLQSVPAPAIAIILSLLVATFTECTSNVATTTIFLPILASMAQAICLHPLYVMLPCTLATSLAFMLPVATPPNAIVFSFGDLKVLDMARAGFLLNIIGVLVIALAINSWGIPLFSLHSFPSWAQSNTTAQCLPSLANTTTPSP

NaDC1 [2] = molecular target: T2, NaDC1 (Homo sapiens, UniProt Q13183); assay: whole-cell patch clamp, transfected HEK293T; type: cell-based; parameters: gene SLC13A2; full length, homodimer; GFP and FLAG tagged in HEK293T for currents; conditions: citrate-induced current; reversible on washout
T2 sequence (Q13183 1-592): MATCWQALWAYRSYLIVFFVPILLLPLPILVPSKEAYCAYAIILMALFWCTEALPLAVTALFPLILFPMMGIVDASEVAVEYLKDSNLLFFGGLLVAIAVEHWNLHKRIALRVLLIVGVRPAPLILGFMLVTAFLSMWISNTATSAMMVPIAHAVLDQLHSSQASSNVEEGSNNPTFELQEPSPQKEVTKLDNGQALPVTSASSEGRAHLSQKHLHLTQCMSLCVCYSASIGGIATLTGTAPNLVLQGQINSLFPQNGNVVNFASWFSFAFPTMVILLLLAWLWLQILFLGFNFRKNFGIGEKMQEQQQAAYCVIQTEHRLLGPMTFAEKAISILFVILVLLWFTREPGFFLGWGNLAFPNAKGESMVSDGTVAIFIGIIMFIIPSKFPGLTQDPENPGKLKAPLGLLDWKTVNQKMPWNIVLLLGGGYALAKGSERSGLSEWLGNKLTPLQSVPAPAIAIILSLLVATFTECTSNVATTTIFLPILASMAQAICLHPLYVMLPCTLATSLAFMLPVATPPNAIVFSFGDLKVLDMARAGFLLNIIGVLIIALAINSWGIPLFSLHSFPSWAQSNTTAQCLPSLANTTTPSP

NaS1 = molecular target: T3, NaS1 (Homo sapiens, UniProt Q9BZW2); assay: cryo-EM structure (IN/IN […] Å, IN/OUT […] Å); type: binding; conditions: substrate site; Na+ bound at Na1 in IN/IN
T3 construct: gene SLC13A1; full length, N-terminal FLAG tag, HEK293F membranes, purified in GDN, homodimer
T3 sequence (Q9BZW2 1-595): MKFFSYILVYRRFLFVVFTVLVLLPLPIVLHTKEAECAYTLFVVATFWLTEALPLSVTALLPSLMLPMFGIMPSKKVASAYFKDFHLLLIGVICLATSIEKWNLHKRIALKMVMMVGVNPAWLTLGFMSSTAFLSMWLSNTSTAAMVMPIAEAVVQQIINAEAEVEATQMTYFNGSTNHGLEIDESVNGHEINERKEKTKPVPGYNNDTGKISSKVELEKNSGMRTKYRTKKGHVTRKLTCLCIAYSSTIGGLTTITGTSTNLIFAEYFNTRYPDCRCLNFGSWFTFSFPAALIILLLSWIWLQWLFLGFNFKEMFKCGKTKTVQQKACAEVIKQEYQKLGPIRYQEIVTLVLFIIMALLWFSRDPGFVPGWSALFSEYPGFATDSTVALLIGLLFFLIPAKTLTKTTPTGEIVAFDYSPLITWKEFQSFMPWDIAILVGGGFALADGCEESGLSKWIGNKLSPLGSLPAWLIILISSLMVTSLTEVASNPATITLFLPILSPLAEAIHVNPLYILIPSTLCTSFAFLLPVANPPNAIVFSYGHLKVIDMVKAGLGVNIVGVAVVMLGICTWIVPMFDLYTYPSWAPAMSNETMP

[3] = molecular target: the molecule itself; assay: cryo-EM structure; single-particle cryo-EM of purified NaDC1 in 20 mM Hepes pH 7.4, 150 mM NaCl, 0.02% GDN; apo, with 10 mM sodium citrate, or with 400 uM ACA; OUT/OUT dimer
[4] = molecular target: the molecule itself; assay: cryo-EM structure; single-particle cryo-EM of purified NaS1 in 25 mM tris pH 8.0, 150 mM NaCl, 0.01% GDN; apo and sulfate-bound; IN/IN and IN/OUT dimers

## CCCCCc1ccc(/C=C/C(=O)Nc2ccccc2C(=O)O)cc1 [ACA]
NaDC1 [1]
  cryo-EM structure (3.3 Å): the cryo-EM structure of NaDC1 bound with ACA was solved
NaDC1 [2]
  whole-cell patch clamp, transfected HEK293T: A significant decrease in citrate-induced current was detected when ACA was added

## O=S(=O)(O)O [sulfate]
NaS1
  cryo-EM structure (IN/IN 3.1 Å, IN/OUT 3.2 Å): there is obvious sulfate density around the classical substrate binding pocket of NaS1_sulfate_IN/IN

B1: human NaDC1 (SLC13A2), sodium ion-dicarboxylate cotransporter 1, natural variant I550V (natural protein, UniProt Q13183-1 1-592, looked up)
chain: MATCWQALWAYRSYLIVFFVPILLLPLPILVPSKEAYCAYAIILMALFWCTEALPLAVTALFPLILFPMMGIVDASEVAVEYLKDSNLLFFGGLLVAIAVEHWNLHKRIALRVLLIVGVRPAPLILGFMLVTAFLSMWISNTATSAMMVPIAHAVLDQLHSSQASSNVEEGSNNPTFELQEPSPQKEVTKLDNGQALPVTSASSEGRAHLSQKHLHLTQCMSLCVCYSASIGGIATLTGTAPNLVLQGQINSLFPQNGNVVNFASWFSFAFPTMVILLLLAWLWLQILFLGFNFRKNFGIGEKMQEQQQAAYCVIQTEHRLLGPMTFAEKAISILFVILVLLWFTREPGFFLGWGNLAFPNAKGESMVSDGTVAIFIGIIMFIIPSKFPGLTQDPENPGKLKAPLGLLDWKTVNQKMPWNIVLLLGGGYALAKGSERSGLSEWLGNKLTPLQSVPAPAIAIILSLLVATFTECTSNVATTTIFLPILASMAQAICLHPLYVMLPCTLATSLAFMLPVATPPNAIVFSFGDLKVLDMARAGFLLNIIGVLVIALAINSWGIPLFSLHSFPSWAQSNTTAQCLPSLANTTTPSP
notes: full-length human SLC13A2 (NaDC1), NP_003975.1, UniProtKB Q13183, with the natural variant I550V that was used to determine the structures; Homodimer in the cryo-EM structures (OUT/OUT; No removal of the FLAG tag is described; the protein was captured on anti-FLAG resin and eluted with FLAG peptide; also called NaDC1_apo; NaDC1_citrate; source: extracted in DDM/CHS, exchanged to GDN); not shown: …
[3]
  binding result: binds

B2: human NaS1 (SLC13A1), sodium ion-sulfate cotransporter 1 (natural protein, UniProt Q9BZW2 1-595, looked up)
chain: MKFFSYILVYRRFLFVVFTVLVLLPLPIVLHTKEAECAYTLFVVATFWLTEALPLSVTALLPSLMLPMFGIMPSKKVASAYFKDFHLLLIGVICLATSIEKWNLHKRIALKMVMMVGVNPAWLTLGFMSSTAFLSMWLSNTSTAAMVMPIAEAVVQQIINAEAEVEATQMTYFNGSTNHGLEIDESVNGHEINERKEKTKPVPGYNNDTGKISSKVELEKNSGMRTKYRTKKGHVTRKLTCLCIAYSSTIGGLTTITGTSTNLIFAEYFNTRYPDCRCLNFGSWFTFSFPAALIILLLSWIWLQWLFLGFNFKEMFKCGKTKTVQQKACAEVIKQEYQKLGPIRYQEIVTLVLFIIMALLWFSRDPGFVPGWSALFSEYPGFATDSTVALLIGLLFFLIPAKTLTKTTPTGEIVAFDYSPLITWKEFQSFMPWDIAILVGGGFALADGCEESGLSKWIGNKLSPLGSLPAWLIILISSLMVTSLTEVASNPATITLFLPILSPLAEAIHVNPLYILIPSTLCTSFAFLLPVANPPNAIVFSYGHLKVIDMVKAGLGVNIVGVAVVMLGICTWIVPMFDLYTYPSWAPAMSNETMP
notes: full-length human SLC13A1 (NaS1), NP_071889.2, UniProtKB Q9BZW2; No removal of the FLAG tag is described; the protein was captured on anti-FLAG resin and eluted with FLAG peptide; not shown: FLAG, N-terminal, kept
[4]
  binding result: binds
